Test results published in article PMC9856672, “SGC-CAMKK2-1: A Chemical Probe for CAMKK2” (Cells, 2023).

Tests used:
CDK5 = target: T1, CDK5 (Homo sapiens, UniProt Q00535); experiment: KINOMEscan 1 μM, CDK5; type: binding; settings: 1000 nM; Entrez CDK5; read-out: Percent Control
T1 construct: purchased Eurofins DiscoverX KINOMEscan
Text: (§1) Supplement cells-12-00287-s001.zip/File S2. KinomeScan data for the CAMKK2 probe and negative control.xlsx, sheet "SGC-CAMKK2-1" | column: Percent Control

KIT(D816V) = target: T2, KIT(D816V) (Homo sapiens, UniProt P10721, D816V); experiment: KINOMEscan 1 μM, KIT(D816V); type: binding; settings: 1000 nM; Entrez KIT; read-out: Percent Control
T2 construct: purchased Eurofins DiscoverX KINOMEscan
Text: as §1

CSNK2A1 = target: T3, CSNK2A1 (Homo sapiens, UniProt P68400); experiment: KINOMEscan 1 μM, CSNK2A1; type: binding; settings: 1000 nM; Entrez CSNK2A1; read-out: Percent Control
T3 construct: purchased Eurofins DiscoverX KINOMEscan
Text: as §1

FLT3(D835H) = target: T4, FLT3(D835H) (Homo sapiens, UniProt P36888, D835H); experiment: KINOMEscan 1 μM, FLT3(D835H); type: binding; settings: 1000 nM; Entrez FLT3; read-out: Percent Control
T4 construct: purchased Eurofins DiscoverX KINOMEscan
Text: as §1

FLT3(R834Q) = target: T5, FLT3(R834Q) (Homo sapiens, UniProt P36888, R834Q); experiment: KINOMEscan 1 μM, FLT3(R834Q); type: binding; settings: 1000 nM; Entrez FLT3; read-out: Percent Control
T5 construct: purchased Eurofins DiscoverX KINOMEscan
Text: as §1

DLK = target: T6, DLK (Homo sapiens, UniProt Q12852); experiment: KINOMEscan 1 μM, DLK; type: binding; settings: 1000 nM; Entrez MAP3K12; read-out: Percent Control
T6 construct: purchased Eurofins DiscoverX KINOMEscan
Text: as §1

FLT3(N841I) = target: T7, FLT3(N841I) (Homo sapiens, UniProt P36888, N841I); experiment: KINOMEscan 1 μM, FLT3(N841I); type: binding; settings: 1000 nM; Entrez FLT3; read-out: Percent Control
T7 construct: purchased Eurofins DiscoverX KINOMEscan
Text: as §1

DYRK1B = target: T8, DYRK1B (Homo sapiens, UniProt Q9Y463); experiment: KINOMEscan 1 μM, DYRK1B; type: binding; settings: 1000 nM; Entrez DYRK1B; read-out: Percent Control
T8 construct: purchased Eurofins DiscoverX KINOMEscan
Text: as §1

MEK1 = target: T9, MEK1 (Homo sapiens, UniProt Q02750); experiment: KINOMEscan 1 μM, MEK1; type: binding; settings: 1000 nM; Entrez MAP2K1; read-out: Percent Control
T9 construct: purchased Eurofins DiscoverX KINOMEscan
Text: as §1

PCTK2 = target: T10, PCTK2 (Homo sapiens, UniProt Q00537); experiment: DiscoverX KINOMEscan binding assay at 1 μM, PCTK2; settings: PCTK2 (CDK17); Compound Concentration 1000 nM; read-out: Percent Control
T10 construct: purchased Eurofins DiscoverX KINOMEscan
Text: as §1

PAK7 = target: T11, PAK7 (Homo sapiens, UniProt Q9P286); experiment: DiscoverX KINOMEscan binding assay at 1 μM, PAK7; settings: Compound Concentration 1000 nM, read-out: Percent Control
T11 construct: purchased Eurofins DiscoverX KINOMEscan
Text: as §1

NEK10 = target: T12, NEK10 (Homo sapiens, UniProt Q6ZWH5); experiment: KINOMEscan 1 μM, NEK10; type: binding; settings: 1000 nM; Entrez NEK10; read-out: Percent Control
T12 construct: purchased Eurofins DiscoverX KINOMEscan
Text: as §1

PIK3CA(C420R) = target: T13, PIK3CA(C420R) (Homo sapiens, UniProt P42336, C420R); experiment: DiscoverX KINOMEscan binding assay at 1 μM, PIK3CA(C420R); settings: Compound Concentration 1000 nM, read-out: Percent Control
T13 construct: purchased Eurofins DiscoverX KINOMEscan
Text: as §1

AMPK-alpha2 = target: T14, AMPK-alpha2 (Homo sapiens, UniProt P54646); experiment: KINOMEscan at 1 μM, AMPK-alpha2; type: binding; settings: 1000 nM, read-out: Percent Control
T14 construct: purchased Eurofins DiscoverX KINOMEscan
Text: (§2) Supplement cells-12-00287-s001.zip/File S2. KinomeScan data for the CAMKK2 probe and negative control.xlsx, sheet "SGC-CAMKK2-1N" | column: Percent Control

ARK5 = target: T15, ARK5 (Homo sapiens, UniProt O60285); experiment: KINOMEscan at 1 μM, ARK5; type: binding; settings: 1000 nM, read-out: Percent Control
T15 construct: purchased Eurofins DiscoverX KINOMEscan
Text: as §2

FLT3 = target: T16, FLT3 (Homo sapiens, UniProt P36888); experiment: KINOMEscan at 1 μM, FLT3; type: binding; settings: 1000 nM, read-out: Percent Control
T16 construct: purchased Eurofins DiscoverX KINOMEscan
Text: as §2

CSNK1A1 = target: T17, CSNK1A1 (Homo sapiens, UniProt P48729); experiment: KINOMEscan at 1 μM, CSNK1A1; type: binding; settings: 1000 nM, read-out: Percent Control
T17 construct: purchased Eurofins DiscoverX KINOMEscan
Text: as §2

SIK = target: T18, SIK (Homo sapiens, UniProt P57059); experiment: KINOMEscan binding assay at 1 μM, SIK; settings: Compound Concentration 1000 nM; read-out: Percent Control
T18 construct: purchased Eurofins DiscoverX KINOMEscan
Text: as §2

SGK = target: T19, SGK (Homo sapiens, UniProt O00141); experiment: KINOMEscan at 1 μM, SGK; type: binding; settings: 1000 nM, read-out: Percent Control
T19 construct: purchased Eurofins DiscoverX KINOMEscan
Text: as §2

PIK3CB = target: T20, PIK3CB (Homo sapiens, UniProt P42338); experiment: KINOMEscan at 1 μM, PIK3CB; type: binding; settings: 1000 nM, read-out: Percent Control
T20 construct: purchased Eurofins DiscoverX KINOMEscan
Text: as §2

STK33 = target: T21, STK33 (Homo sapiens, UniProt Q9BYT3); experiment: KINOMEscan binding assay at 1 μM, STK33; settings: Compound Concentration 1000 nM; read-out: Percent Control
T21 construct: purchased Eurofins DiscoverX KINOMEscan
Text: as §2

WNK3 = target: T22, WNK3 (Homo sapiens, UniProt Q9BYP7); experiment: KINOMEscan at 1 μM, WNK3; type: binding; settings: 1000 nM, read-out: Percent Control
T22 construct: purchased Eurofins DiscoverX KINOMEscan
Text: as §2

SRPK3 = target: T23, SRPK3 (Homo sapiens, UniProt Q9UPE1); experiment: KINOMEscan binding assay at 1 μM, SRPK3; settings: Compound Concentration 1000 nM; read-out: Percent Control
T23 construct: purchased Eurofins DiscoverX KINOMEscan
Text: as §2

KIT(V559D,V654A) = target: T24, KIT(V559D,V654A) (Homo sapiens, UniProt P10721, V559D/V654A); experiment: KINOMEscan at 1 μM, KIT(V559D,V654A); type: binding; settings: 1000 nM, read-out: Percent Control
T24 construct: purchased Eurofins DiscoverX KINOMEscan
Text: as §2

NEK9 = target: T25, NEK9 (Homo sapiens, UniProt Q8TD19); experiment: KINOMEscan binding assay at 1 μM, NEK9; settings: Compound Concentration 1000 nM; read-out: Percent Control
T25 construct: purchased Eurofins DiscoverX KINOMEscan
Text: as §2

FLT3(ITD,D835V) = experiment: KINOMEscan binding assay at 1 μM, FLT3(ITD,D835V); design: species or system human; settings: Compound Concentration 1000 nM
Text: as §2

[1] = target: T26, ABL1(H396P)-nonphosphorylated (Homo sapiens, UniProt P00519, H396P); experiment: KINOMEscan at 1 μM, ABL1(H396P)-nonphosphorylated; type: binding; settings: 1000 nM, read-out: Percent Control
T26 construct: purchased Eurofins DiscoverX KINOMEscan
Text: as §2

p38-beta = target: T27, p38-beta (Homo sapiens, UniProt Q15759); experiment: KINOMEscan binding assay at 1 μM, p38-beta; settings: Compound Concentration 1000 nM; read-out: Percent Control
T27 construct: purchased Eurofins DiscoverX KINOMEscan
Text: as §2

ZAK = target: T28, ZAK (Homo sapiens, UniProt Q9NYL2); experiment: KINOMEscan at 1 μM, ZAK; type: binding; settings: 1000 nM, read-out: Percent Control
T28 construct: purchased Eurofins DiscoverX KINOMEscan
Text: as §2

EGFR(L747-T751del,Sins) = experiment: KINOMEscan binding assay at 1 μM, EGFR(L747-T751del,Sins); design: species or system human; settings: Compound Concentration 1000 nM
Text: as §2

SRPK1 = target: T29, SRPK1 (Homo sapiens, UniProt Q96SB4); experiment: KINOMEscan at 1 μM, SRPK1; type: binding; settings: 1000 nM, read-out: Percent Control
T29 construct: purchased Eurofins DiscoverX KINOMEscan
Text: as §2

BUB1 = target: T30, BUB1 (Homo sapiens, UniProt O43683); experiment: KINOMEscan at 1 μM, BUB1; type: binding; settings: 1000 nM, read-out: Percent Control
T30 construct: purchased Eurofins DiscoverX KINOMEscan
Text: as §2

GRK3 = target: T31, GRK3 (Homo sapiens, UniProt P35626); experiment: KINOMEscan at 1 μM, GRK3; type: binding; settings: 1000 nM, read-out: Percent Control
T31 construct: purchased Eurofins DiscoverX KINOMEscan
Text: as §2

PRKCQ = target: T32, PRKCQ (Homo sapiens, UniProt Q04759); experiment: KINOMEscan binding assay at 1 μM, PRKCQ; settings: Compound Concentration 1000 nM; read-out: Percent Control
T32 construct: purchased Eurofins DiscoverX KINOMEscan
Text: as §2

GRK1 = target: T33, GRK1 (Homo sapiens, UniProt Q15835); experiment: KINOMEscan at 1 μM, GRK1; type: binding; settings: 1000 nM, read-out: Percent Control
T33 construct: purchased Eurofins DiscoverX KINOMEscan
Text: as §2

T21 sequence (Q9BYT3 whole entry): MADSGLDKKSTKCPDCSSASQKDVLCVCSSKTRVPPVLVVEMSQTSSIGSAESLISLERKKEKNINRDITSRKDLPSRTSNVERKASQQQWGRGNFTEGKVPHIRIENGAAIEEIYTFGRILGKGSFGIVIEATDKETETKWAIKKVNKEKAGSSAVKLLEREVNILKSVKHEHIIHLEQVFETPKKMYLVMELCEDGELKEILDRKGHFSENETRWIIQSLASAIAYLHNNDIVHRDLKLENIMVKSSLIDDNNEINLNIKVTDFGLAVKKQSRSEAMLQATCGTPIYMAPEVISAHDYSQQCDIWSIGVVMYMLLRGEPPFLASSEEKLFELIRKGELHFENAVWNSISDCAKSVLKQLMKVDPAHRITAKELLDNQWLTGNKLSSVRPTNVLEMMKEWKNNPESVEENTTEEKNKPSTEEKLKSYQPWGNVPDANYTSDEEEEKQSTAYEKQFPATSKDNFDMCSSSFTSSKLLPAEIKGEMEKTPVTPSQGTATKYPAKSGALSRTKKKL
T22 sequence (Q9BYP7 whole entry): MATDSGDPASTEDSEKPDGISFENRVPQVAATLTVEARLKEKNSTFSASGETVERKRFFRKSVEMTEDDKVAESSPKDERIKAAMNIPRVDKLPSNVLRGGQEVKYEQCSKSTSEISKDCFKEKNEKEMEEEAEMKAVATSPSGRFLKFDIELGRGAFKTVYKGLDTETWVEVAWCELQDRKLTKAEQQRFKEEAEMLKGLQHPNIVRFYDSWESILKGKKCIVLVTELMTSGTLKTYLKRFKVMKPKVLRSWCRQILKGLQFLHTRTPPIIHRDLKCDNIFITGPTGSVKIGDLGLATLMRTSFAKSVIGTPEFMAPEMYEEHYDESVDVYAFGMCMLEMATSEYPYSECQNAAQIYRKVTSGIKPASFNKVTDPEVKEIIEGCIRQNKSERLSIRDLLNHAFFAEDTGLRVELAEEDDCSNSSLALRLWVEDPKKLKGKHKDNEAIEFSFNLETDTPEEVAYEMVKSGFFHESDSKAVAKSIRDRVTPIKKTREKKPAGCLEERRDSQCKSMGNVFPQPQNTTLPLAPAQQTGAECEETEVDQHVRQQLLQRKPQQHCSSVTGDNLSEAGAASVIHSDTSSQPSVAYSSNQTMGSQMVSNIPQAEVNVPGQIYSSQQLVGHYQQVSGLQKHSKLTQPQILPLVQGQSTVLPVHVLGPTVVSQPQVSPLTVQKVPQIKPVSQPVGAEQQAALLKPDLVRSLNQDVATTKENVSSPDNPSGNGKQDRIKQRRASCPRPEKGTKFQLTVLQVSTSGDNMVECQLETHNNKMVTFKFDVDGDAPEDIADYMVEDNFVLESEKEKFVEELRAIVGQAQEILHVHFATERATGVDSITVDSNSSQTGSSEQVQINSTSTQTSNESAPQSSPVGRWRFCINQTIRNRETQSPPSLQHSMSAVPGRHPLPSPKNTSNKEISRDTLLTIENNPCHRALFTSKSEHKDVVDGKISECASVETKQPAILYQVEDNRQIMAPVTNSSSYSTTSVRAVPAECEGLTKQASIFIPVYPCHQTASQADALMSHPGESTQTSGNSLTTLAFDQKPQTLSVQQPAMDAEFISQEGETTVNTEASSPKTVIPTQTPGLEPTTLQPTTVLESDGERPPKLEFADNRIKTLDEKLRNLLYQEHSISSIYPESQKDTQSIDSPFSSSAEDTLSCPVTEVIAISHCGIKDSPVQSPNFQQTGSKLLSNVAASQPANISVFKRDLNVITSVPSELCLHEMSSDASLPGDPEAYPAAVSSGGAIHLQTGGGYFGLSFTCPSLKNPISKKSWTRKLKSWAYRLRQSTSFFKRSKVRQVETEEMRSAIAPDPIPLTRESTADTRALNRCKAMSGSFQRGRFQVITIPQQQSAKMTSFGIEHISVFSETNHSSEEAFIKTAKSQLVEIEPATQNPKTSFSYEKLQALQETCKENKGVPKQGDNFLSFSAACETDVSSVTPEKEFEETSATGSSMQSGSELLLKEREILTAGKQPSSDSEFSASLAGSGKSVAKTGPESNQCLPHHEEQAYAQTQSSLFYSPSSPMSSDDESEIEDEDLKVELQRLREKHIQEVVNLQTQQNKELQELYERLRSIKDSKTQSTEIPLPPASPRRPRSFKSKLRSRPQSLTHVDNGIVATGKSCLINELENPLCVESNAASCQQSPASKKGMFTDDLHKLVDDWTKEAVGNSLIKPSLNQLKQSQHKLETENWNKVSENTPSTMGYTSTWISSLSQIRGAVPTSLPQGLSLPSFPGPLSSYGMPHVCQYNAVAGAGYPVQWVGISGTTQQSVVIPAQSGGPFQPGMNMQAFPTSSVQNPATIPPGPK
T15 sequence (O60285 whole entry): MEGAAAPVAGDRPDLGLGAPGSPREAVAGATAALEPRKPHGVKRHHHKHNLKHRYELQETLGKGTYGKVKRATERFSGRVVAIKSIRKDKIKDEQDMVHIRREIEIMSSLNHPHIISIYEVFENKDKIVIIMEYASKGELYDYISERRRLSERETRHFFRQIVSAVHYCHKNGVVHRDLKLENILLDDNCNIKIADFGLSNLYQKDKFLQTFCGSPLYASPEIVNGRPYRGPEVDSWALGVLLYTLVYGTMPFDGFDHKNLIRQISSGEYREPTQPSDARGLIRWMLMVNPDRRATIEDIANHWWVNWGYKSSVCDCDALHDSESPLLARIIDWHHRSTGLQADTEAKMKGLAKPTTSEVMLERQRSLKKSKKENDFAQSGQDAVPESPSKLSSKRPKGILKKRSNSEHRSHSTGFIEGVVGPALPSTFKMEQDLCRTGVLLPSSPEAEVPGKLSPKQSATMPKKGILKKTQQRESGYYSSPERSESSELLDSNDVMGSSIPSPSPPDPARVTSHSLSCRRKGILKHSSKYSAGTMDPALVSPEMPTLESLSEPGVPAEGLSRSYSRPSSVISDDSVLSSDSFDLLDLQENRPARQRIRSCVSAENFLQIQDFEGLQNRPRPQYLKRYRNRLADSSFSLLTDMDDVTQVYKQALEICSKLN
T33 sequence (Q15835 whole entry): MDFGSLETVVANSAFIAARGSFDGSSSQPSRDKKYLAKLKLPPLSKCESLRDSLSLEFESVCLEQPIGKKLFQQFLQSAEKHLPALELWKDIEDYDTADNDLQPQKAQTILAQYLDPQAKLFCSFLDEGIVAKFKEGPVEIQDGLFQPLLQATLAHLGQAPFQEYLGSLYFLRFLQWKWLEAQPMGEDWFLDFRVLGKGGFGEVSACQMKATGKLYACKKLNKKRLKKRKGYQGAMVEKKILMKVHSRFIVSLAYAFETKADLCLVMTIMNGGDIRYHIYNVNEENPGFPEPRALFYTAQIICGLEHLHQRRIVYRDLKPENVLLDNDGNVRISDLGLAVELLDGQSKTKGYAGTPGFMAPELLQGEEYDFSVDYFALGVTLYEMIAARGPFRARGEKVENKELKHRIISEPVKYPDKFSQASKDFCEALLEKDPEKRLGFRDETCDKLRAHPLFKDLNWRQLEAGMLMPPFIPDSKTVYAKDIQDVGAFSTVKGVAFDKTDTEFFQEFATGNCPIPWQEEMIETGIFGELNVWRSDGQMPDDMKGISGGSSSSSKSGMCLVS
T24 sequence (P10721 26-976 V559D/V654A): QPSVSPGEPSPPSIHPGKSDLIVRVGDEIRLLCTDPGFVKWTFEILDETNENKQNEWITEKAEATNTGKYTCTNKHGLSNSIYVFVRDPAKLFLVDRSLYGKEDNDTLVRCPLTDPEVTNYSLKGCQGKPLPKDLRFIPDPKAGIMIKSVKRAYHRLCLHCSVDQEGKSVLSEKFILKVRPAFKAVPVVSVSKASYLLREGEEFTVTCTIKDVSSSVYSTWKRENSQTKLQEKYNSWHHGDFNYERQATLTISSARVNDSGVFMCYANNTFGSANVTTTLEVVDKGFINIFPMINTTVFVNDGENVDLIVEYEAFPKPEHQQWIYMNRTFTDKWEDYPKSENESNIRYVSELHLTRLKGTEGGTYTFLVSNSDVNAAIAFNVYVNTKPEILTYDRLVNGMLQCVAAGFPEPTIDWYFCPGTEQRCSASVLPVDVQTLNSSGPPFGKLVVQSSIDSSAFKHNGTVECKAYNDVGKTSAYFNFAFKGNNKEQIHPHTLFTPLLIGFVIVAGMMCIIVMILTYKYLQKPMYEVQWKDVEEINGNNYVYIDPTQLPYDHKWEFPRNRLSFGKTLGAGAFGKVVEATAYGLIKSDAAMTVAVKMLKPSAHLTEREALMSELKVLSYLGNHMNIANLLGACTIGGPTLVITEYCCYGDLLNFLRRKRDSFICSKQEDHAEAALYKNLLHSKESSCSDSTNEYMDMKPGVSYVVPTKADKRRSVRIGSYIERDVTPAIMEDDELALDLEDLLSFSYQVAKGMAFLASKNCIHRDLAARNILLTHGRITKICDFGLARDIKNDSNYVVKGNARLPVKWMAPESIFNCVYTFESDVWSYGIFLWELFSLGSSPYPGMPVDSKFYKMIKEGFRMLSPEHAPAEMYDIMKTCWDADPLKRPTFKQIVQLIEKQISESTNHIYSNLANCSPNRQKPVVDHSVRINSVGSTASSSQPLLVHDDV
T27 sequence (Q15759 whole entry): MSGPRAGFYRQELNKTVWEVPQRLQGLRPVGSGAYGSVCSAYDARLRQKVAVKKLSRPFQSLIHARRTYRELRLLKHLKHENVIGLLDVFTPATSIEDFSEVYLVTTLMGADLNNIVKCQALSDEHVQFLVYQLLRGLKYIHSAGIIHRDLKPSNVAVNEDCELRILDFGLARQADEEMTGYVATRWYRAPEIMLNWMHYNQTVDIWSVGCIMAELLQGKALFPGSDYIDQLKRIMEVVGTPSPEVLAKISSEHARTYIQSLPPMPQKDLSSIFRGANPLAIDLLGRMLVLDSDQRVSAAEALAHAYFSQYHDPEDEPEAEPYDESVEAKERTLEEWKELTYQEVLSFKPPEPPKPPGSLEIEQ
T2 sequence (P10721 26-976 D816V): as the sequence (P10721 26-976 V559D/V654A) above, with D534V, A629V, D791V counted along it

Cc1cccc(-c2cnc3occ(-c4ccc(C(=O)O)c(C5CCCC5)c4)c3c2)c1 [SGC-CAMKK2-1 (YL-36)]
remaining binding at 1 µM (CDK5): 100% | remaining binding at 1 µM (KIT(D816V)): 100% | remaining binding at 1 µM (CSNK2A1): 94% | remaining binding at 1 µM (FLT3(D835H)): 87% | remaining binding at 1 µM (FLT3(R834Q)): 100% | remaining binding at 1 µM (DLK): 100% | remaining binding at 1 µM (FLT3(N841I)): 95% | remaining binding at 1 µM (DYRK1B): 100% | remaining binding at 1 µM (MEK1): 100% | remaining binding at 1 µM (PCTK2): 100% | remaining binding at 1 µM (PAK7): 100% | remaining binding at 1 µM (NEK10): 88% | remaining binding at 1 µM (PIK3CA(C420R)): 100%

O=C(O)c1ccc(-c2coc3ncc(-c4ccccc4)cc23)cc1Cl [SGC-CAMKK2-1N (UNC-YL-83)]
remaining binding at 1 µM (AMPK-alpha2): 100% | remaining binding at 1 µM (ARK5): 84% | remaining binding at 1 µM (FLT3): 91% | remaining binding at 1 µM (CSNK1A1): 44% | remaining binding at 1 µM (SIK): 100% | remaining binding at 1 µM (SGK): 79% | remaining binding at 1 µM (PIK3CB): 67% | remaining binding at 1 µM (STK33): 100% | remaining binding at 1 µM (WNK3): 95% | remaining binding at 1 µM (SRPK3): 100% | remaining binding at 1 µM (KIT(V559D,V654A)): 92% | remaining binding at 1 µM (NEK9): 100% | Percent Control (FLT3(ITD,D835V)): 100% | remaining binding at 1 µM [1]: 64% | remaining binding at 1 µM (p38-beta): 100% | remaining binding at 1 µM (ZAK): 69% | Percent Control (EGFR(L747-T751del,Sins)): 100% | remaining binding at 1 µM (SRPK1): 85% | remaining binding at 1 µM (BUB1): 79% | remaining binding at 1 µM (GRK3): 66% | remaining binding at 1 µM (PRKCQ): 100% | remaining binding at 1 µM (GRK1): 92%
